{"source": "patent US20250002473A1", "about": "“QUINOXALINE DERIVED SULFONAMIDES WITH EGFR DEGRADATION ACTIVITIES AND THEIR USES THEREOF” (Accutar Biotechnology Inc., priority 2023, published 2025)", "type_in_all_cases": "cell-based", "key": {"[1]": {"molecular_target": "T1, BaF3_SVD (EGFR_D770insSVD) (Homo sapiens, UniProt P00533, INS770SVD)", "T1 construct": "expressed in transfected cells; host or cells: Ba/F3 (engineered)", "T1 sequence (P00533 with tags, fused parts or gaps INS770SVD)": "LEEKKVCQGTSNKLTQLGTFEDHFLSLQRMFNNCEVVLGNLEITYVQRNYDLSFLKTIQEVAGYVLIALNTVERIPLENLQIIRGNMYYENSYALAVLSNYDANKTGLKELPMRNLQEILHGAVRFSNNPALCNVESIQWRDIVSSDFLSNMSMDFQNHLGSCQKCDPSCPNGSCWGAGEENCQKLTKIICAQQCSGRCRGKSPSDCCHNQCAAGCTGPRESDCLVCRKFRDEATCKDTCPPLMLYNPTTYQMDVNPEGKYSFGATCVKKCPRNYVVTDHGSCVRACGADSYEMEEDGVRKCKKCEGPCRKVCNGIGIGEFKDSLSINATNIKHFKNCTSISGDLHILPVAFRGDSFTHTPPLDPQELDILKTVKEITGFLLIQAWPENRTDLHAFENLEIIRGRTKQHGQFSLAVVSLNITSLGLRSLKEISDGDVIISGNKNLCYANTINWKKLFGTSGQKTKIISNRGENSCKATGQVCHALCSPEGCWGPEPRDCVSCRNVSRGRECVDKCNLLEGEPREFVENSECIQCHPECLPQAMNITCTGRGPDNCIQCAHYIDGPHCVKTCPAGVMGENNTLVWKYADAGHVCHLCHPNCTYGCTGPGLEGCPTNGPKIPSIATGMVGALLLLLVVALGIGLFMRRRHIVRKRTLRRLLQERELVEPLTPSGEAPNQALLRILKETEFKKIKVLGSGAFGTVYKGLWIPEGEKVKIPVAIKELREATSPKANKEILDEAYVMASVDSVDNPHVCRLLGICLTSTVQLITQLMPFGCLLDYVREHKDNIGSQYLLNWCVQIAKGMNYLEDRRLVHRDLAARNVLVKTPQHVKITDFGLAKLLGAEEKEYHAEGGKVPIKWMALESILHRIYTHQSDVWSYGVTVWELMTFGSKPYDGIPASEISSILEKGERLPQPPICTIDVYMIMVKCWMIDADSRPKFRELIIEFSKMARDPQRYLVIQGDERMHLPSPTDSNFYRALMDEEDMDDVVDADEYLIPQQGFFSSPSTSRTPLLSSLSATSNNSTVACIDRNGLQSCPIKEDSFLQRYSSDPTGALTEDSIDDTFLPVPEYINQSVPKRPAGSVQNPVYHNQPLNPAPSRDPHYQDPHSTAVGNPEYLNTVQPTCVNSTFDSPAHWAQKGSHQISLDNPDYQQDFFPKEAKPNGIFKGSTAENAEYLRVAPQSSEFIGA", "assay": "EGFR degradation assay (western blot), BaF3_SVD cells", "procedure": "(§1) A431 (EGFR_WT), NCl-H2073 (EGFR_WT), NCl-H292 (EGFR_WT), BaF3_YVAM (Her2_A775insYVAM), BaF3_SVD (EGFR_D770insSVD), BaF3_ASV (EGFR_A776inASV), or BaF3_DTC (EGFR_Exon19del/T790M/C797S) cells were seeded in a 24-well plate at a density of 4×10^5 cells per well for EGFR WT cells and 8× cells per well for EGFR or Her2 mutant cells, and the plates were incubated overnight. The cells were treated with the desired compounds for 24 h. The culture medium was removed, and 100 μL of RIPA buffer (Beyotime, P0013B) containing 1% Protease Inhibitor Cocktail (Bimake, B14001), 1% Phosphatase Inhibitor Cocktail 2 (Sigma, P5726), and 1% Phosphatase Inhibitor Cocktail 3 (Sigma, P0044) were added to lyse the cells. Then, the cell lysates were transferred to 1.5 mL microcentrifuge tubes and centrifuged at 12,000 rpm and 4° C. for 30 min. The supernatants were transferred into new tubes, and the protein concentration was determined using the BCA protein quantification method. All samples were diluted to the same concentration using RIPA buffer, loading buffer was added, samples were denatured, and 15 μg of protein per lane was loaded onto a SurePAGE 4-20% Bis-Tris gel. Samples were separated via electrophoresis in MOPS running buffer at 180 V for 100 min. Then, proteins were transferred onto PVDF membranes using the MiniBlot™ Electrophoretic Transfer Cell Device (Beyotime, E6050). The membrane was blocked using block buffer (LI-COR 927-60001) to prevent non-specific binding. The membrane was incubated with primary antibodies (1:500 dilution, EGFR-CST4405, 1:2000 dilution, Tubulin-ABclonal #AC021) at 4° C. overnight. The membrane was washed three times with 1× TBST buffer for 15 min each. The membrane was incubated with secondary antibodies IRDye 680RD Goat anti-Rabbit IgG Secondary Antibody (1:2000 dilution, LI-COR 926-68071) and IRDye 800CW Goat anti-Mouse IgG Secondary Antibody (1:2000 dilution, LI-COR 926-32210). […] Fluorescence was detected using the Odyssey CLx Imaging System, and the data were analyzed with Empiria Studio Software and GraphPad Prism 9. […]"}, "A431 (EGFR_WT)": {"molecular_target": "T2, A431 (EGFR_WT) (Homo sapiens, UniProt P00533)", "T2 construct": "endogenous in cells; host or cells: A431, NCI-H2073, NCI-H292", "T2 sequence (P00533 25-1210)": "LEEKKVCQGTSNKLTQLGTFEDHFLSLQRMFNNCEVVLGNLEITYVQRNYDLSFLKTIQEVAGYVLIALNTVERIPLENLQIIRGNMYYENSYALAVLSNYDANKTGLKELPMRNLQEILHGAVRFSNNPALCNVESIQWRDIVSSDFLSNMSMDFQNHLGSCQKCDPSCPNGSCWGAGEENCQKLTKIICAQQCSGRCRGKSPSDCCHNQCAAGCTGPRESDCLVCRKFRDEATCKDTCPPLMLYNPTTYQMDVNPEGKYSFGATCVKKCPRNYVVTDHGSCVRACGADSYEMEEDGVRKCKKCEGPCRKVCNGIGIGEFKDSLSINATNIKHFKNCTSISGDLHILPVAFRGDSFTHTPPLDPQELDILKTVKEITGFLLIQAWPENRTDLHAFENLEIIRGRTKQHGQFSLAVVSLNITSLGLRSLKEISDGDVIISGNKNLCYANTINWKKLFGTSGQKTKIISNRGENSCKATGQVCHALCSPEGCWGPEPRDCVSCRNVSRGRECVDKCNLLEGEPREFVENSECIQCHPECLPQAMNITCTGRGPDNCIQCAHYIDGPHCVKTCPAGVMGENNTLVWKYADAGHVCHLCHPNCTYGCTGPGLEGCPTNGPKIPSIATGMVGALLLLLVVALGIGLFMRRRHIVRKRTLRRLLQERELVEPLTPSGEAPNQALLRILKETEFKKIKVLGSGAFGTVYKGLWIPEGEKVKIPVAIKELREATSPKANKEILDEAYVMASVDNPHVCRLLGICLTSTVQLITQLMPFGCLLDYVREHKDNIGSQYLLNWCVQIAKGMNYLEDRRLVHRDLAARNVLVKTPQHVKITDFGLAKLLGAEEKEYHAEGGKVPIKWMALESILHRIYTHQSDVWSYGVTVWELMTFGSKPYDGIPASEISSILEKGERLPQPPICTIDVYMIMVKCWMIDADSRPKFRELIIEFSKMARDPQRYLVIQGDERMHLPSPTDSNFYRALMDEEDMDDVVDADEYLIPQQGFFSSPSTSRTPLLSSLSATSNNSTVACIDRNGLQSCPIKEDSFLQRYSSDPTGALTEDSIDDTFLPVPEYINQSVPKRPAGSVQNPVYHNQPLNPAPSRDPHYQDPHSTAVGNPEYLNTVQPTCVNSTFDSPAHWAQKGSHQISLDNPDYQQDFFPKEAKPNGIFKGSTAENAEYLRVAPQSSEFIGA", "assay": "EGFR degradation assay (western blot), A431 cells", "summary_of_the_method": "(§2)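 Cells seeded overnight, then exposed to compounds for 24 h; lysates run on western blot, EGFR probed with tubulin loading control and fluorescent secondary detection. DC50 = concentration giving 50% EGFR degradation.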"}, "[2]": {"molecular_target": "T3, BaF3_ASV (EGFR_A776inASV) (Homo sapiens, UniProt P00533, DUP767-769)", "T3 construct": "expressed in transfected cells; host or cells: Ba/F3 (engineered)", "T3 sequence (P00533 with tags, fused parts or gaps DUP767-769)": "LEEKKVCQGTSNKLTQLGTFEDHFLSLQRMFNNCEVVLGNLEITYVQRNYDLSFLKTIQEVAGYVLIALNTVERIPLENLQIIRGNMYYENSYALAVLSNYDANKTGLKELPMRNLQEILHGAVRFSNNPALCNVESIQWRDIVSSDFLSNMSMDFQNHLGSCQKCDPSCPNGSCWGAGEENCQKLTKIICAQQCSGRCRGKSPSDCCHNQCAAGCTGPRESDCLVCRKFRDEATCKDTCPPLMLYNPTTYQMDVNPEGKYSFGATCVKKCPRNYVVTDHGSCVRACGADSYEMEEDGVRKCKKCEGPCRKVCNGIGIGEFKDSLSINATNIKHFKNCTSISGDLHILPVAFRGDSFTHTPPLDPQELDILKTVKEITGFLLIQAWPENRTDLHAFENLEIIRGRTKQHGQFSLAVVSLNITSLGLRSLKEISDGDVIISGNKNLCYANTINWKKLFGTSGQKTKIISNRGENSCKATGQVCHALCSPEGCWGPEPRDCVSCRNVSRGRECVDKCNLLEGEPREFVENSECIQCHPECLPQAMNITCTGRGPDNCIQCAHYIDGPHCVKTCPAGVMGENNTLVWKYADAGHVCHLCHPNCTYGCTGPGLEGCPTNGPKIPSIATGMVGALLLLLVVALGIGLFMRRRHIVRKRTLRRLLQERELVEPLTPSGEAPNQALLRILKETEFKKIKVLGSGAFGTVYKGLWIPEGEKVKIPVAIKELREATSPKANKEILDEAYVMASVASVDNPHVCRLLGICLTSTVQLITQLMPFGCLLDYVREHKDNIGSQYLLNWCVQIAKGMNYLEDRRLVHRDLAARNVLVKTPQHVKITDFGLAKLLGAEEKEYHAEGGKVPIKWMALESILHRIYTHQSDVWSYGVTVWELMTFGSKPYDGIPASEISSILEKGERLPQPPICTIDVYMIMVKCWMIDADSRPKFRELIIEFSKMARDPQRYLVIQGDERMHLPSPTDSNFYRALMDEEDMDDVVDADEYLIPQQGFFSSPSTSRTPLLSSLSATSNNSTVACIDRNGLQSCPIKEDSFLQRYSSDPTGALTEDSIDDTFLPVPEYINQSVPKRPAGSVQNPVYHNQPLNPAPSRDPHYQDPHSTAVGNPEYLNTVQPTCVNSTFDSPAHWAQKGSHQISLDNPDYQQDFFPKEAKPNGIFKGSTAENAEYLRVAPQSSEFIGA", "assay": "EGFR degradation assay (western blot), BaF3_ASV cells", "conditions": "for DC50: BaF3_ASV cells", "summary_of_the_method": "as §2"}, "NCl-H2073 (EGFR_WT)": {"molecular_target": "T4, NCl-H2073 (EGFR_WT) (Homo sapiens, UniProt P00533)", "T4 construct": "endogenous in cells; host or cells: A431, NCI-H2073, NCI-H292", "assay": "EGFR degradation assay (western blot), NCl-H2073 cells", "conditions": "Table 5; NCI-H2073 cells (EGFR_WT), 24 h", "procedure": "as §1, with “min.” for “min. Then, proteins were transferred onto PVDF membranes using the MiniBlot™ Electrophoretic Transfer Cell Device (Beyotime, E6050). The membrane was blocked using block buffer (LI-COR 927-60001) to prevent non-specific binding. The membrane was incubated with primary antibodies (1:500 dilution, EGFR-CST4405, 1:2000 dilution, Tubulin-ABclonal #AC021) at 4° C. overnight. The membrane was washed three times with 1× TBST buffer for 15 min each. The membrane was incubated with secondary antibodies IRDye 680RD Goat anti-Rabbit IgG Secondary Antibody (1:2000 dilution, LI-COR 926-68071) and IRDye 800CW Goat anti-Mouse IgG Secondary Antibody (1:2000 dilution, LI-COR 926-32210).”"}, "NCI-H292": {"test_system": "NCI-H292", "assay": "Cell growth inhibition assay (CellTiter-Glo), NCI-H292", "conditions": "Homo sapiens; Table 7; NCI-H292 cells; head prints 24 h", "procedure": "(§3) Cells were seeded in a 96-well plate (Corning 3610) with 90 μL of culture medium per well, and plates were incubated at 37° C. overnight. A 1,000× DMSO stock solution of the desired compound was prepared the following day. A compound dilution plate was prepared by diluting the stock solution 1:100 in the corresponding cell culture medium, 10 μL of the diluted compound solution was added to each 96-well plate well containing the seeded cells. […] The content of the wells was mixed by shaking continuously for 10 min, and luminescence was measured using Envision (PerkinElmer). The data were analyzed with GraphPad Prism 9 (see FIG. 50).\n(§4) Table 6, Table 7, and Table 8 list the cell growth inhibition results, where Gls0 represents the compound concentration to cause 50% cell growth inhibition in comparison with DMSO."}, "BaF3_ASV": {"test_system": "BaF3_ASV", "assay": "Cell growth inhibition assay (CellTiter-Glo), BaF3_ASV", "conditions": "for GI50: BaF3_ASV cells"}, "[3]": {"test_system": "BaF3_DTC (EGFR_Exon19del/T790M/C797S)", "assay": "EGFR degradation assay (western blot), BaF3_DTC cells", "summary_of_the_method": "as §2"}, "[4]": {"molecular_target": "T5, BaF3_YVAM (Her2_A775insYVAM) (Homo sapiens, UniProt P04626, INS775YVMA)", "T5 construct": "expressed in transfected cells; host or cells: Ba/F3 (engineered)", "T5 sequence (P04626 with tags, fused parts or gaps INS775YVMA)": "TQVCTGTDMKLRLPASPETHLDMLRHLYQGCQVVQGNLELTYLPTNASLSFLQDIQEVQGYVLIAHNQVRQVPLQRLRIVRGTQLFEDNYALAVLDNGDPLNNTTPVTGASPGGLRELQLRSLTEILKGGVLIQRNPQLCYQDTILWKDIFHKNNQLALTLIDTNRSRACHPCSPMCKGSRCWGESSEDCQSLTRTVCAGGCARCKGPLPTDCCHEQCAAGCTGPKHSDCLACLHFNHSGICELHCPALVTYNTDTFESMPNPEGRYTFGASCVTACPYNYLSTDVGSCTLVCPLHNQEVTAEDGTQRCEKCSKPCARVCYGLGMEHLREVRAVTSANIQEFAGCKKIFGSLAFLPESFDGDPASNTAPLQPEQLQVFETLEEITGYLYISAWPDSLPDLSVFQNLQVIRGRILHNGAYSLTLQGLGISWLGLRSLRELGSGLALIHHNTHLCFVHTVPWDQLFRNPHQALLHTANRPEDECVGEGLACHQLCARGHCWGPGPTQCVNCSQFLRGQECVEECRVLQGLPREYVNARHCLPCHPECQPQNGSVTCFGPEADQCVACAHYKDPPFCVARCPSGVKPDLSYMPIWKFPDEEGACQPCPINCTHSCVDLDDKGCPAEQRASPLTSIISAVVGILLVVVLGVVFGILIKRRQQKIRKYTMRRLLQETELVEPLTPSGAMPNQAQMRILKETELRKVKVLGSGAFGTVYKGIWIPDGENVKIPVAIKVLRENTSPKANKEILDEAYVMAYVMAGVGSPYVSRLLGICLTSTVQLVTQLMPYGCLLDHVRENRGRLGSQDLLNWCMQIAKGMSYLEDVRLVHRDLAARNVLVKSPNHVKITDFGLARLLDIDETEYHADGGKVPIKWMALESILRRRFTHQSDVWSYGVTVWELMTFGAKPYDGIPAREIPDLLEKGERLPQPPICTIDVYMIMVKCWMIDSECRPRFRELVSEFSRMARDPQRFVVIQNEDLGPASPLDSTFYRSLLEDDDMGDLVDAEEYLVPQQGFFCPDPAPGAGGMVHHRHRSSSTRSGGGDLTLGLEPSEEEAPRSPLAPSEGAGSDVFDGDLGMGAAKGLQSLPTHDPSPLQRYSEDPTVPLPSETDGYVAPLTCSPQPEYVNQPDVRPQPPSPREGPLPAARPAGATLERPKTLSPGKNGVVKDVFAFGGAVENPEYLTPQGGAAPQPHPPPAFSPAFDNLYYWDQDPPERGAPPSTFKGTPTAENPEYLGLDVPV", "assay": "EGFR degradation assay (western blot), BaF3_YVAM cells", "procedure": "as §1"}, "A431": {"test_system": "A431", "assay": "Cell growth inhibition assay (CellTiter-Glo), A431", "conditions": "Homo sapiens, A431 cells", "summary_of_the_method": "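This growth inhibition assay reports GI50, the compound concentration producing 50% inhibition of cell growth relative to DMSO. Seeded cells (90 μL medium per well, 96-well Corning 3610 plates, overnight at 37° C.) received 10 μL of compound diluted 1:100 from a 1,000× DMSO stock. Luminescence was measured on Envision (PerkinElmer) and analyzed in GraphPad Prism 9.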"}, "BaF3_YVMA": {"test_system": "BaF3_YVMA", "assay": "Cell growth inhibition assay (CellTiter-Glo), BaF3_YVMA", "procedure": "as §3, §4"}, "BaF3_DTC": {"test_system": "BaF3_DTC", "assay": "Cell growth inhibition assay (CellTiter-Glo), BaF3_DTC"}, "[5]": {"conditions": "BaF3_ASV, comparison with Compound A, in words"}, "[6]": {"conditions": "BaF3_YVMA, comparison with Compound A, in words"}}, "note": "Read-outs that look alike come from different tables or passages of the source.", "data": [{"compound": "CCc1cc(Nc2ncc(Br)c(Nc3ccc4nccnc4c3NS(C)(=O)=O)n2)c(OC)cc1N1CCC(N2CCN(CCc3cccc4c3n(CC)c(=O)n4C3CCC(=O)NC3=O)CC2)CC1", "note": "(stereo not shown) [Compound 11, N-(6-((5-bromo-2-((4-(4-(4-(2-(1-(2,6-dioxopiperidin-3-yl)-3-ethyl-2-oxo-2,3-dihydro-1H-benzo[d]imidazol-4-yl)ethyl)piperazin-1-yl)piperidin-1-yl)-5-ethyl-2-methoxyphenyl)amino)pyrimidin-4-yl)amino)quinoxalin-5-yl)methanesulfonamide]", "values": [{"measurement": "Potency in degrading EGFR exon20 insertion mutant form compared with Compound A (BaF3_SVD)", "setting": "[1]; BaF3_SVD, comparison with Compound A, in words", "result": "significantly increased potency"}, {"measurement": "DC50", "setting": "[1]; Table 5, BaF3_SVD cells, 24 h", "result": 21.6, "unit": "nM"}, {"measurement": "DC50", "setting": "A431 (EGFR_WT); Table 5, 24 h, read-out: DC50 (nM), 24 h, A431", "result": "> 1000", "unit": "nM"}, {"measurement": "DC50", "setting": "A431 (EGFR_WT); compounds 24 h, western blot, read-out: A431 DC50", "result": "> 1000", "unit": "nM"}, {"measurement": "DC50", "setting": "[2]; compounds 24 h, western blot, read-out: BaF3_ASV DC50", "result": 22.4, "unit": "nM"}, {"measurement": "Potency in degrading EGFR exon20 insertion mutant form compared with Compound A (BaF3_ASV)", "setting": "[2]; [5]", "result": "significantly increased potency"}, {"measurement": "DC50", "setting": "[2]; Table 5, 24 h, read-out: DC50 (nM), 24 h, BaF3_ASV", "result": 22.4, "unit": "nM"}, {"measurement": "DC50", "setting": "NCl-H2073 (EGFR_WT)", "result": "> 1000", "unit": "nM"}, {"measurement": "GI50", "setting": "NCI-H292", "result": 436, "unit": "nM"}, {"measurement": "GI50", "setting": "BaF3_ASV; 72 h, Table 6, three days, CellTiter-Glo, read-out: BaF3_ASV GI50", "result": 75.2, "unit": "nM"}, {"measurement": "Potency in cell growth inhibition compared with Compound A (BaF3_ASV)", "setting": "BaF3_ASV; [5]", "result": "significantly increased potency"}, {"measurement": "GI50", "setting": "BaF3_ASV; Table 7, head prints 24 h, read-out: GI50 (nM), 24 h, BaF3_ASV", "result": 75.2, "unit": "nM"}, {"measurement": "DC50", "setting": "[3]; BaF3_DTC cells (EGFR_Exon19del/T790M/C797S), compounds 24 h, western blot, read-out: BaF3_DTC DC50", "result": 1.2, "unit": "nM"}, {"measurement": "DC50", "setting": "[3]; Table 5, BaF3_Del19/T790M/C797S cells, 24 h, read-out: DC50 (nM), 24 h, BaF3_Del19/T790M/C797S", "result": 1.2, "unit": "nM"}, {"measurement": "Potency in degrading Her2 mutant form compared with Compound A (BaF3_YVMA)", "setting": "[4]; [6]", "result": "significantly increased potency"}, {"measurement": "DC50", "setting": "[4]; Table 5, BaF3_YVMA cells (mutant Her2), 24 h", "result": 33.3, "unit": "nM"}, {"measurement": "GI50", "setting": "A431; A-431, 24 h, Table 7, head prints 24 h, read-out: GI50 (nM), 24 h, A431", "result": 2500, "unit": "nM"}, {"measurement": "GI50", "setting": "A431; A-431, 72 h, Table 6, three days, CellTiter-Glo, read-out: A431 GI50", "result": "> 1000", "unit": "nM"}, {"measurement": "Potency in cell growth inhibition compared with Compound A (BaF3_YVMA)", "setting": "BaF3_YVMA; [6]", "result": "significantly increased potency"}, {"measurement": "GI50", "setting": "BaF3_YVMA; Table 7, BaF3_YVMA cells, head prints 24 h", "result": 188, "unit": "nM"}, {"measurement": "GI50", "setting": "BaF3_DTC; 72 h, Table 6, BaF3_DTC cells, three days, CellTiter-Glo, read-out: BaF3_DTC GI50", "result": 6.37, "unit": "nM"}, {"measurement": "GI50", "setting": "BaF3_DTC; Table 7, BaF3_Del19/T790M/C797S cells, head prints 24 h, read-out: GI50 (nM), 24 h, BaF3_Del19/T790M/C797S", "result": 6.37, "unit": "nM"}]}]}
